Measurements published in ChEMBL document CHEMBL3988442, “University of Dundee, Small-Polar-MMV Screening Library” (2021).

How the values were obtained:
[1] = microbe, parasite or virus in culture; conditions: Mycobacterium tuberculosis, 96 h, read-out: pIC50 (converted)
[2] = microbe, parasite or virus in culture; conditions: Mycobacterium tuberculosis, 72 h, read-out: pIC50 (converted)

Compound	IC50 [1] [µM]	IC50 [2] [µM]
Cc1n[nH]c(C)c1CCNC(=O)C1CCCN(Cc2ccco2)C1 (stereo unspecified)	> 50.1	> 50.1
CC[C@@H](CO)NC(=O)NCC(C)c1ccsc1 (stereo partly specified)	495	483
NC1CCCN(Cc2ccccc2)C1 (stereo unspecified)	> 501	262
COc1ccc(CNC(=O)CNC2CCCSC2)cc1 (stereo unspecified)	37.4	> 501
CC(C)Cc1noc(-c2ccc(N(C)CCO)nc2)n1	397	239
COC(=O)CCCC(=O)N1CCC2(CCCC2)C1	110	180
CN(C)c1cc(CNc2ccc(C#N)cn2)ccn1	453	205
Nc1nnc(SCc2ccccc2F)s1	157	248
O=C(C1Cc2cc(Cl)ccc2O1)N1CCOCC1 (stereo unspecified)	> 501	> 501
CC(N)Cc1nc(-c2ccccc2)no1 (stereo unspecified)	115	173
CCS(=O)(=O)NCCNS(=O)(=O)c1ccc(C)cc1Cl	> 501	> 501
Cc1nc(-c2c[nH]c(C(=O)N3CCCC3)c2)cs1	427	241
O=C(NCc1cccc(Cl)c1)c1cnns1	159	297
CN1CCN(C(=O)Cn2ccc3ccc(Br)cc32)CC1	173	132
Nc1cc(N2CCCC(CO)(Cc3ccccc3F)C2)nc(N)n1 (stereo unspecified)	45.3	47.1
CCc1n[nH]c(SCC(=O)Nc2ccc(Br)cn2)n1	186	144
CC(C)(C)c1n[nH]cc1CNCC1CCN(C2CC2)C1 (stereo unspecified)	27.6	28.5
CC(CO)(CO)NC(=O)c1cnc(-c2cccs2)s1	> 501	> 501
CN(Cc1nnc(C2CC2)o1)Cc1ccccc1-c1ccccc1	> 50.1	24.7

Compound	IC50 [1] [µM]	IC50 [2] [µM]
CC1(C)CN(C(=O)c2cc(Br)c[nH]2)CCO1	290	136
CN(CCc1ccc(Br)cc1)C(=O)CCCN	> 501	179
Cc1noc(CNC(CCO)C(C)C)n1 (stereo unspecified)	> 501	> 501
COC(=O)C(NC(=O)c1ccc(N(C)C)nc1)c1ccccc1 (stereo unspecified)	10.2	33.2
CCN(C)Cc1nc(-c2ccccc2NS(C)(=O)=O)oc1C	> 50.1	> 50.1
Cc1c(Br)cccc1S(=O)(=O)NCCN	> 501	212
COc1ccc(CC(=O)Nc2c(C)nc(N3CCCC3)nc2C)cc1	> 50.1	> 50.1
NC(=O)NC(=O)CCN1CCCc2c(Br)cccc2C1	96	48
CCCN(CCC(=O)NC(=O)NC)CC1CCCCO1 (stereo unspecified)	240	93.8
CN(C)CCCN1CC2(CCN(C3CCCOC3)CC2)OC1=O (stereo unspecified)	> 50.1	> 50.1
CN(CCOc1ccc(Cl)cc1)S(C)(=O)=O	178	142
COC(=O)c1ccc(C(=O)NCc2ccc(Br)cc2)cn1	25.6	24.8
Cc1ccc(C(=O)CCN2CCOCC2C(N)=O)cc1 (stereo unspecified)	152	59
COc1cc(OC)cc(N2CCC(N)C2)c1 (stereo unspecified)	213	232
O=C(NCC(O)c1ccc(Cl)cc1)Nc1ccccn1 (stereo unspecified)	> 501	106
Cc1ccc(CN2CC[C@H](c3nnc(COc4ccc(F)cc4)o3)C2)o1	37.2	> 50.1
Cc1ccc(C(N)c2ccccn2)cc1 (stereo unspecified)	191	90.7
O=C(NCC1CC1)c1cccc2nn[nH]c12	256	233
O=C(CCc1cc(Cl)no1)N1CCOC(C(F)(F)F)C1 (stereo unspecified)	134	> 501
